Key:
EED (1-441)-His protein = target: T1, EED (1-441)-His protein (Homo sapiens, UniProt O75530); assay: EED-H3K27Me3 peptide competition binding assay by AlphaScreen; conditions: EED Alpha screen binding assay; read-out: Alpha screen
T1 construct: 20 nM EED (1-441)-His protein
Protocol: “N/A” stands for “not assessed”.
EED-H3K27Me3 peptide competition binding assay by AlphaScreen (α-screen)
2.5 μl of solutions containing 20 nM biotin-H3K27Me3 (19-33) peptide in the buffer (25 mM HEPES, pH 8, 0.02% Tween-20, 0.5% BSA) were added to the wells and then incubated with compound for 30 min. […] Then 10 μl of the detection beads mix was added to the plate and incubated in the dark at RT for 1 h. The final concentration of donor and acceptor beads was 10 μg/ml for each. […] The data were then fit to a dose response equation to get the IC50 values.

[1] = system: KARPAS422 human B cell lymphoma cell; assay: Cell proliferation, KARPAS422, 7 day treatment (WST-8); assay type: cell-based; conditions: Homo sapiens, KARPAS-422, 168 h, read-out: Karpas Cell line (nM)
In short: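 KARPAS422 cells seeded at 2 000-3 000 cells/well and exposed to serially diluted compounds for 7 days at 37 °C, 5% CO2. Growth measured by WST-8 (1-4 h, absorbance 450 nm). Readings normalized to DMSO-treated cells; IC50 from nonlinear regression.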

Pfeiffer cell line = assay: Anti-proliferative activity, Pfeiffer cell line, 7 day treatment; assay type: cell-based; conditions: Homo sapiens, Pfeiffer, 168 h, read-out: Pfeiffer Cell line (nM)
In short: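 Cells seeded at 2 000-3 000 per well were treated with serially diluted compounds for 7 days at 37° C, 5% CO2. Growth was measured by WST-8 assay read at 450 nm after 1-4 h reagent incubation. Readings were normalized to DMSO-treated cells and IC50 values derived by nonlinear regression.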

T1 sequence (O75530 whole entry): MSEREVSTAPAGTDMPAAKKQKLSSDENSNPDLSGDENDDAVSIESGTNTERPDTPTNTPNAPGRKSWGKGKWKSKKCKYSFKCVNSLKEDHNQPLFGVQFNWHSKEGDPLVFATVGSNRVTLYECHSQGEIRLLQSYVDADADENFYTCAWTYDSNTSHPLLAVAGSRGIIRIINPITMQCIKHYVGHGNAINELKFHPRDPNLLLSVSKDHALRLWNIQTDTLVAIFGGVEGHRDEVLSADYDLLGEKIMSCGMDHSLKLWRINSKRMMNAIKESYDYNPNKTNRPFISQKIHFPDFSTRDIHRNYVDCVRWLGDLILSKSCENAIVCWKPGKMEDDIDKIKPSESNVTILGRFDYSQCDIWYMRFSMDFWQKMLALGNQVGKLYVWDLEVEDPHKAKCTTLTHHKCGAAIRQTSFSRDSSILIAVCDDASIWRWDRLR

IC50 (EED (1-441)-His protein): 0.62 nM | IC50 [1]: 0.94 nM
SMILES: CS(=O)(=O)c1ncn2c(NCc3c(F)ccc4c3CCO4)ncc(-c3ccc(C(F)(F)F)nc3)c12 [compound 102, N-((5-fluoro-2,3-dihydrobenzofuran-4-yl)methyl)-1-(methylsulfonyl)-8-(6-(trifluoromethyl)pyridin-3-yl)imidazo[1,5-c]pyrimidin-5-amine]
IC50 (Pfeiffer cell line): 0.59 nM
